# Reference: article PMC10864208, “Characterizing the protein–protein interaction between MDM2 and 14-3-3σ; proof of concept for small molecule stabilization” (The Journal of Biological Chemistry, 2024)
# Read-outs that look alike come from different tables or passages of the source. Non-standard residues stand in square brackets, D forms with d. Residues, ends and D or L forms follow the SMILES beside them. pS = N[C@@H](COP(=O)(O)O)C(=O)O
# Key:
# [1] = system: 14-3-3σ/MDM2_159-173^pS166 peptide; test: FP, FC-A effect on 14-3-3σ/MDM2 159-173 pS166; assay type: binding; details: 1.0 mM FC-A, 10 nM FITC-labeled MDM2_159-173^pS166; accurate fit not obtained
# Description: (§1) . Red arrows highlight peaks for the ternary complex.
# 14-3-3 PPIs = details: cited from earlier work
# Description: To investigate the feasibility of this, the effect of fusicoccin A (FC-A) on the PPI was studied using FP, ITC, and native MS.
# 14-3-3σ/MDM2 complex = test: native mass spectrometry, ternary complex with FC-A; assay type: binding; details: for relative abundance of ternary complex 14-3-3σ + MDM2 + FC-A (native MS): pH 6.8, SD, n = 3
# Description: as §1
# 14-3-3 σ was buffer exchanged into 100 mM ammonium acetate pH 6.8 using a 30 kDa molecular weight cut-off Amicon Ultra centrifugal filter (Merck Millipore) and stored at −80 °C prior to use. […] . All native MS experiments were performed on an Orbitrap Eclipse Tribrid mass spectrometer (Thermo Fisher Scientific, Bremen) coupled to a nanoelectrospray source that used gold-coated borosilicate glass capillaries, pulled in-house. Positive ionization mode was used throughout with the capillary voltage set to 1.2 kV. The source temperature was set at 275 °C, in-source dissociation at 25, S-lens RF at 100. High pressure mode was used and a mass range of 2000 to 8000 m/z used to monitor the binding equilibria. Mass spectra were acquired using a maximum ion injection time of 50 ms. The automatic gain control was set to 1 x 10^6 and the ions detected in the Orbitrap with resolution set to 7500. All data was analyzed using XCalibur (v.4.1). All proteins and protein complexes were identified based on their theoretical mass.
# Analytical grade ammonium acetate and LC-MS grade Dimethyl Sulfoxide (DMSO) were purchased from Fisher Scientific. 14-3-3 σ was buffer exchanged into 100 mM ammonium acetate pH 6.8 using a 30 kDa molecular weight cut-off Amicon Ultra centrifugal filter (Merck Millipore) and stored at -80 °C prior to use. The lyophilised MDM2161-191^pS166/pS186 31mer peptide (see Table S4) was diluted into 100mM ammonium acetate pH 6.8. […] . To quantify each complex, the relative abundance of the complexes observed was assumed to reflect their abundance in solution. Due to overlapping peaks, 15+ ions were excluded from analysis. […] . Standard deviations of the abundance of each complex were calculated from 3 replicates.
# 14-3-3ζ = molecular target: T1, 14-3-3ζ (Homo sapiens, UniProt P63104); test: fluorescence polarization (FP), direct binding to 14-3-3ζ
# T1 sequence (P63104 1-245): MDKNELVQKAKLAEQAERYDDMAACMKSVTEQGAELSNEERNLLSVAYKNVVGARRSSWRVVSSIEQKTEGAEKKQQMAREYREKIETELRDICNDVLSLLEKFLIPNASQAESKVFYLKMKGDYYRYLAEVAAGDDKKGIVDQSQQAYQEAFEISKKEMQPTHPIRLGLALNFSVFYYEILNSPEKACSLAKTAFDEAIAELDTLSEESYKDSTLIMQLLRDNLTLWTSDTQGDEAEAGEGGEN
# Description: (§2) For all experiments, a fixed concentration of 10 nM fluorescently labeled peptide (FITC) was used. […] All data was analyzed using GraphPad Prism 7 and sigmoidal curves were fitted using the following equation: Y=Bottom + (Top-Bottom)/(1+10ˆ((Log app.Kd-X)∗HillSlope)), where Y = mP value; X = log 14-3-3 concentration; top and bottom = plateaus in mP.
# (§3) Both proteins were prepared via the following procedure:
# (§4) For all experiments a fixed concentration of 10 nM fluorescently labelled peptide (FITC) was used. […] All data was analysed using GraphPad Prism 7 and sigmoidal curves were fitted using the following equation:
# 14-3-3σ = molecular target: T2, 14-3-3σ (Homo sapiens, UniProt P31947); test: fluorescence polarization (FP), direct binding to 14-3-3σ; details: for binding to 14-3-3σ by FP (in words) / maximum polarization level (in words): FITC-labeled peptide 10 nM; for binding to 14-3-3σ by FP (in words): pH 7.5; for maximum polarization level (in words): 14-3-3σ titration
# T2 sequence (P31947 1-248): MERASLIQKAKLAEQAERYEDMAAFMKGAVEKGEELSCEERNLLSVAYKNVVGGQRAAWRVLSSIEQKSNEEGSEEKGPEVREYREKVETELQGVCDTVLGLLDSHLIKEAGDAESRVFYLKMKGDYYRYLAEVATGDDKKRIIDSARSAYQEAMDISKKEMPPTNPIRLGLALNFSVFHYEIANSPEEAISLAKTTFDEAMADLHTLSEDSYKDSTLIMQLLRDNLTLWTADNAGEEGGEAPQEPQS
# Description: as §2, §3, §4
# [2] = molecular target: 14-3-3σ/MDM2_179-193^pS186 peptide (Homo sapiens, UniProt P31947+Q00987); test: biochemical
# Description: as §2
# 14-3-3σ and 14-3-3ζ = test: ITC, mono-phosphorylated MDM2 peptides; assay type: binding; details: N-acetylated peptide 1.0 mM into 14-3-3 100 µM, 25 °C, pH 7.5, Malvern MicroCal ITC200
molecule,measurement,setting,value
"C=CC(C)(C)OC[C@H]1O[C@H](O[C@@H]2C3=C([C@H](C)COC(C)=O)C[C@H](O)[C@]3(C)/C=C3/[C@@H](COC)CC[C@H]3[C@@H](C)[C@H]2O)[C@H](O)[C@@H](OC(C)=O)[C@@H]1O [FC-A, fusicoccin A]","effect of FC-A on binding (FP, in words)",[1],small effect
same,"stabilization of di-phosphorylated mode I/II motif peptides, e.g. CFTR (in words)",14-3-3 PPIs; ref [27],shown to stabilize peptides containing mode I/II type di-phosphorylated binding motifs
same,stabilization of mode III 14-3-3 PPIs (in words),14-3-3 PPIs; ref [43],predominantly stabilizes mode III 14-3-3 PPIs
same,relative abundance of ternary complex 14-3-3σ + MDM2 + FC-A (native MS),14-3-3σ/MDM2 complex; 14-3-3σ 5 μM : MDM2 10 μM : FC-A 5 μM,6 ± 3%
same,relative abundance of ternary complex 14-3-3σ + MDM2 + FC-A (native MS),14-3-3σ/MDM2 complex; 14-3-3σ 5 μM : MDM2 10 μM : FC-A 25 μM,15 ± 5%
same,"composition of ternary complex (native MS, in words)","14-3-3σ/MDM2 complex; 14-3-3σ 5 μM, MDM2 peptide 10 μM, FC-A 5 or 25 μM","a 14-3-3 dimer, a single MDM2 di-phosphorylated peptide, and a single FC-A molecule"
CC[C@H](C)[C@H](NC(=O)[C@H](CO)NC(=O)[C@H](CC(=O)O)NC(=O)[C@H](COP(=O)(O)O)NC(=O)[C@H](CCCCN)NC(=O)[C@H](Cc1c[nH]cn1)NC(=O)[C@H](CCCNC(=N)N)NC(=O)[C@H](CCCCN)NC(=O)[C@H](CCCNC(=N)N)NC(=O)[C@H](CCC(N)=O)NC(=O)[C@H](CCCNC(=N)N)NC(C)=O)C(=O)N[C@@H](CO)C(=O)N[C@@H](CC(C)C)C(=O)N[C@@H](CO)C(=O)N[C@@H](Cc1ccccc1)C(N)=O [MDM2_179-193^pS186] (Ac-RQRKRHK[pS]DSISLSF-NH2),Kd,14-3-3ζ,11.4 ± 5.4 µM
same,Kd,14-3-3σ,26.2 ± 17.9 µM
same,Kd,"14-3-3σ; Kd (FP), duplicate data, duplicate data set (Fig. S1A), 14-3-3σ titrated to 10 nM FITC-labelled peptide, pH 7.5, room temperature, SD, n=3",22.3 ± 21.5 µM
same,Kd,[2],24.6 ± 12 µM
"AcHN-^159SSRRRAI(pS)ETEENSD^173-NH2 (Ac-SSRRRAI[pS]ETEENSD-NH2; SMILES CC[C@H](C)[C@H](NC(=O)[C@H](C)NC(=O)[C@H](CCCNC(=N)N)NC(=O)[C@H](CCCNC(=N)N)NC(=O)[C@H](CCCNC(=N)N)NC(=O)[C@H](CO)NC(=O)[C@H](CO)NC(C)=O)C(=O)N[C@@H](COP(=O)(O)O)C(=O)N[C@@H](CCC(=O)O)C(=O)N[C@H](C(=O)N[C@@H](CCC(=O)O)C(=O)N[C@@H](CCC(=O)O)C(=O)N[C@@H](CC(N)=O)C(=O)N[C@@H](CO)C(=O)N[C@@H](CC(=O)O)C(N)=O)[C@@H](C)O; UniProt Q00987 159-173, looked up, fragment) [MDM2_159-173^pS166]",binding by ITC (in words),14-3-3σ and 14-3-3ζ,could not be detected
same,binding to 14-3-3ζ by FP (in words),"14-3-3ζ; FITC-labeled peptide 10 nM, pH 7.5","bound weakly to 14-3-3ζ, and no effective Kd value could be obtained"
same,binding to 14-3-3σ by FP (in words),14-3-3σ,bound weakly to 14-3-3σ and saturation was not observed
"FITC-Ahx-^159SSRRRAI(pS)ETEENSDELSGERQRKRHKSDSISLSF^193-NH2 (SSRRRAISETEENSDELSGERQRKRHKSDSISLSF; phosphoSer166; FITC label; UniProt Q00987 159-193, looked up, fragment) [MDM2_159-193^pS166]",maximum polarization level (in words),14-3-3σ,small increase in the maximum polarization value
same,binding to 14-3-3σ by FP (in words),14-3-3σ,saturation was not observed and an effective Kd value could not be obtained
"FITC-Ahx-^159SSRRRAISETEENSDELSGERQRKRHK(pS)DSISLSF^193-NH2 (SSRRRAISETEENSDELSGERQRKRHKSDSISLSF; phosphoSer186; FITC label; UniProt Q00987 159-193, looked up, fragment) [MDM2_159-193^pS186]",maximum polarization level (in words),14-3-3σ,comparable to that observed for the di-phosphorylated MDM2_161-191^pS166/pS186 peptide
same,binding to 14-3-3σ by FP (in words),14-3-3σ,much weaker affinity than the 15 amino acid MDM2_179-193^pS186 peptide
